These results are taken from paper PMC11204543, “Halenaquinol Blocks Staphylococcal Protein A Anchoring on Cell Wall Surface by Inhibiting Sortase A in Staphylococcus aureus” (Marine Drugs, 2024).

Broadly, the IC50 is the concentration at which inhibition is half-maximal. The term MIC denotes the smallest concentration in the dilution series that meets the test's criterion for growth inhibition.

Structures are written as SMILES. Values after ≈ are worked out from the molar mass of the structure shown. Values joined by “and” are separate entries in the source; they are usually repeats but may differ in a detail not shown here. Equal entries are not always repeated. Structures can show the parent of a compound that is named as a salt. Where two headings read alike, the source gives them in different places.

In one assay the test system is S. aureus SrtA. Conditions: cited from earlier work.
The next assay relates to S. aureus ATCC6538p. Put plainly: Antibacterial activity (CLSI broth dilution MIC). In kind it is cell-based. Conditions: Staphylococcus aureus, 12 h. As for the experimental part: (§1) The SrtA inhibitory activity of compounds 1–6, along with that of a known SrtA inhibitor, quercetin [24], was evaluated in vitro using a fluorescence-based enzymatic assay. Recombinant SrtA from S. aureus ATCC6538p was expressed in Escherichia coli and was purified using nickel affinity chromatography. The cleavage of a synthetic peptide substrate by the SrtA enzyme emitted fluorescence, which was then measured. Table 1 presents the half maximal inhibitory concentration (IC50) values calculated from SrtA inhibition rates. […] As SrtA inhibitors act as anti-infective agents by disrupting bacterial pathogenesis without affecting microbial viability, minimum inhibitory concentration (MIC) values were examined to determine their effects on bacterial cell growth.
An assessment of the antibacterial properties of the isolated compounds was conducted in accordance with the protocols provided by the Clinical and Laboratory Standard Institute (CLSI). The S. aureus ATCC6538p strain was cultivated overnight at 37 °C in Mueller–Hinton broth (MHB, BD Difco, Sparks, MD, USA). Subsequently, it was harvested using centrifugation, rinsed with sterilized deionized water, and adjusted to the optical density of a 0.5 McFarland standard (625 nm). Test compounds, initially dissolved in DMSO, were further diluted with MHB to achieve a range of 2-fold serial dilutions from 0.25 to 128 μg/mL (maintaining a final DMSO concentration of 1%). In a 96-well plate, 90 μL of the MHB containing the test compound were combined with 10 μL of broth inoculated with the bacterium (final bacterial concentration: 5 × 10^5 cfu/mL). Following a 12 h incubation at 37 °C, the MICs were determined as the lowest concentration at which bacterial growth was inhibited. Ampicillin (Duchefa, Amsterdam, The Netherlands) served as the reference standard.
For orientation: In broth dilution the organism is exposed to a series of concentrations in liquid medium.

In assay [1] the target is T1, Recombinant SrtA from S. aureus ATCC6538p (Staphylococcus aureus, UniProt Q2FV99).
T1 construct: no tag is named in the print; made in house; host or cells: Escherichia coli
Put plainly: SrtA inhibition assay (fluorescence-based enzymatic assay, Abz-LPETG-Dnp substrate). In kind it is biochemical. The following applies: for IC50: SrtA IC50, recombinant SrtA from S. aureus ATCC6538p, mean ± SD (n = 3); for SrtA inhibitory activity in words: similar to that of quercetin. As for the experimental part: as §1
To determine the type of inhibition, kinetic studies were performed with halenaquinol at IC50 or twofold IC50 based on a Lineweaver and Burk plot (Figure 2A). Inhibitor constants were obtained by a Dixon plot (Figure 2B). […] Moreover, the binding of halenaquinol to SrtA was reversible because the enzyme activity was recovered by dialysis, excluding the possible existence of a covalent bond between inhibitor and enzyme.
The recombinant SrtA protein from S. aureus ATCC6538p was prepared using a previously described method. Each reaction comprised a 100 μL mixture containing a reaction buffer (50 mM Tris-HCl pH 7.5, 150 mM NaCl, and 5 mM CaCl2), 250 ng of synthetic fluorescent peptide substrate (Abz-LPETG-Dnp), 20 μg of SrtA, and varying concentrations of test samples. DMSO served as the negative control, while quercetin [24] was employed as the positive control. Test sample was dissolved in DMSO and then diluted with reaction buffer to yield a final DMSO concentration of 1%. The reaction mixture was aliquoted into a 96-well plate. Following the addition of SrtA, fluorescence intensity was determined using a microplate reader at excitation and emission wavelengths of 320 nm and 420 nm, respectively. The plate was then incubated for 1 h at 37 °C, and fluorescence intensity was measured. The effect of the inhibitor on SrtA was calculated as a percentage relative to the DMSO-treated control. The percentage of SrtA inhibition was calculated using the following equation: {1 − (Difference value of the test compound/Difference value of a negative control)} × 100. A 12-point, twofold serial dilution dose–response assay was performed independently in triplicate. The resultant dose–response concentration range was 128 to 0.1 μg/mL of inhibitor. Data were scaled to internal controls, and a four-parameter logistic model (SigmaPlot ver. 10.0) was used to fit the measured data and determine the IC50 values. In order to investigate the inhibition type and inhibition constant (Ki) values of halenaquinol, SrtA enzyme activity was monitored in various concentrations of substrate in the absence and presence of halenaquinol. All reactions were repeated three times and enzyme kinetics were evaluated using Lineweaver–Burk and Dixon plots.

Another assay has as its system S. mutans SrtA. The following applies: cited from earlier work.

T1 sequence (Q2FV99 whole entry): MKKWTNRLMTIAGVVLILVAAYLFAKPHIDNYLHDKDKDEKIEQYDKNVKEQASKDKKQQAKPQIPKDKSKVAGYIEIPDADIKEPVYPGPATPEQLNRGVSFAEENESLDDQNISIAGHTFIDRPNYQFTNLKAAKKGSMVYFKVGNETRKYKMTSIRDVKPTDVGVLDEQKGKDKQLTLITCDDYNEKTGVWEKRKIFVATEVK

Turning to `COc1ccc(/C(C#N)=C/c2cc(OC)ccc2OC)cc1` [(Z)-3-(2,5-dimethoxyphenyl)-2-(4-methoxyphenyl) acrylonitrile], the IC50 with S. aureus SrtA (SrtA inhibition) was 9.2 µM. In the assay on S. aureus SrtA, the “manner of binding the enzyme” value is on record as “reversible” and the type of inhibition result was “competitive inhibitor”.

`CC1(C)S[C@@H]2[C@H](NC(=O)[C@H](N)c3ccccc3)C(=O)N2[C@H]1C(=O)O` [Ampicillin, reference compound]: the MIC against S. aureus ATCC6538p (ATCC6538P) is 0.4 µM and 0.1 µg/mL.

For the molecule `C[C@@]12CCC(=O)c3coc(c31)C(=O)c1cc3c(O)ccc(OS(=O)(=O)O)c3cc12` [Compound 1, halenaquinol sulfate], in assay [1], the 50% inhibitory concentration (IC50) is 103 µM and the “SrtA inhibitory activity in words” value is “moderate inhibitory activities”. Moreover, the MIC against S. aureus ATCC6538p (ATCC6538P) was 309 µM and > 128 µg/mL.

For `C[C@]12CCCc3coc(c31)C(=O)c1cc3c(cc12)C(O)CCC3O` (some centres unmarked) [Compound 3, 13,14,15,16-tetrahydroxestoquinol], the half-maximal inhibitory concentration (IC50) in assay [1] was 51.8 µM. The minimal inhibitory concentration (MIC) against S. aureus ATCC6538p (ATCC6538P) is 395 µM and > 128 µg/mL.

As to `C[C@@]12CCCc3coc(c31)C(=O)c1cc3c(O)ccc(OS(=O)(=O)O)c3cc12` [Compound 4, xestoquinol sulfate], in assay [1], the IC50 is more than 320 µM. The MIC with S. aureus ATCC6538p (ATCC6538P) was 320 µM and > 128 µg/mL.

On to `C[C@]12CCCc3coc(c31)C(=O)c1cc3c(cc12)C(=O)C=C(NCCS(=O)(=O)O)C3=O` [Compound 5, secoadociaquinone B], for which, in assay [1], the 50% inhibitory concentration (IC50) was determined as 131 µM and the “SrtA inhibitory activity in words” value is on record as “moderate inhibitory activities”. The MIC in the assay on S. aureus ATCC6538p (ATCC6538P) was 290 µM and > 128 µg/mL.

Turning to `C[C@H]1OC(=O)c2cc3c(cc21)[C@@]1(C)CC[C@@H](O)c2coc(c21)C3=O` [Compound 6, xestolactone A], the IC50 in assay [1] came to 47.5 µM. Besides, the MIC against S. aureus ATCC6538p (ATCC6538P) was 395 µM and > 128 µg/mL.

For `O=c1c(O)c(-c2ccc(O)c(O)c2)oc2cc(O)cc(O)c12` [Quercetin, quercetin, reference compound], the concentration for half-maximal inhibition (IC50) in assay [1] came out at 158 µM. Besides, the MIC in the assay on S. aureus ATCC6538p (S. aureus ATCC6538p growth, 37 °C, read-out: MIC) was > 424 µM and > 128 µg/mL.

Take `O=C(c1nc(-c2c[nH]c3cc(Br)ccc23)c[nH]1)c1c[nH]c2cc(O)ccc12` [bromotopsentin]: the IC50 with S. aureus SrtA (S. aureus SrtA) is 39.6 µM.

With `O=S(=O)(O)c1ccccc1-c1nn2c(-c3ccncc3)nnc2s1` [compound 6e, 3-(4-pyridinyl)-6-(2-sodiumsulfonatephenyl)[1,2,4]triazolo [3,4-b][1,3,4]thiadiazole], the IC50 with S. aureus SrtA (S. aureus SrtA) was 9.3 µM.

As for `COc1cc2ccnc3c2c(c1O)N(C)C=C3` [isoaaptamine], in the assay with S. aureus SrtA (S. aureus SrtA), the half-maximal inhibitory concentration (IC50) is 16.2 µM.

As for `O=c1c(O)c(-c2cc(O)c(O)c(O)c2)oc2cc(O)cc(O)c12` [myricetin], the IC50 in the assay on S. mutans SrtA is 15.48 µg/mL (≈ 48.6 µM).

Regarding `O=C(NCCSSCCNC(=O)/C(Cc1ccc(O)c(Br)c1)=N/O)/C(Cc1ccc(O)c(Br)c1)=N/O` [psammaplin A], the half-inhibitory concentration (IC50) with S. aureus SrtA (S. aureus SrtA) is 47.4 µM.
